# Measured values as given in patent US8906930B2, “Quinazoline derivatives” (Merck Patent GmbH, priority 2009, dated 2014).
# Target: T1, Recombinant human HSP90α (Homo sapiens, UniProt P07900)
# T1 construct: host or cells: E. coli
# Experiment: HSP90 radioligand filter binding test ([3H]17AAG competition)
# Conditions: radioligand [3H]17AAG 0.08 μM; HSP90 1.5 μg/assay; 22° C., 30 min; read-out: HSP90 inhibition IC50
# Text: The binding of geldanamycin or 17-allylamino-17-demethoxygeldanamycin (17AAG) to HSP90 and competitive inhibition thereof can be utilised in order to determine the inhibitory activity of the compounds according to the invention (Carreras et al. 2003, Chiosis et al. 2002).
# In the specific case, a radioligand filter binding test is used. The radioligand used here is tritium-labelled 17-allylaminogeldanamycin, [3H]17AAG. This filter binding test allows a targeted search for inhibitors which interfere with the ATP binding site.
# Recombinant human HSP90α (E. coli expressed, 95% purity);
# [3H]17AAG (17-allylaminogeldanamycin, [allylamino-2,3-^3H. Specific activity: 1.11×10^12 Bq/mmol (Moravek, MT-1717);
# HEPES filter buffer (50 mM HEPES, pH 7.0, 5 mM MgCl2, BSA 0.01%) Multiscreen FB (1 μm) filter plate (Millipore, MAFBNOB 50).
# The 96-well microtitre filter plates are firstly irrigated and coated with 0.1% of polyethylenimine.
# The test is carried out under the following conditions:
# Reaction temperature 22° C.
# Reaction time: 30 min., shaking at 800 rpm
# 50 mM HEPES HCl, pH 7.0, 5 mM MgCl2, 0.01% (w/v) of BSA
# At the end of the reaction, the supernatant in the filter plate is removed by suction with the aid of a vacuum manifold (Multiscreen Separation System, Millipore), and the filter is washed twice.
# The filter plates are then measured in a beta counter (Microbeta, Wallac) with scintillator (Microscint 20, Packard).
# “% of control” is determined from the “counts per minutes” values, and the IC-50 value of a compound is calculated therefrom.
row,Compound,IC50 [nM]
1,"CCCNC(=O)C1(c2ccc3nc(N)nc(C(=O)N4Cc5ccccc5C4)c3c2)CCC1 [Compound A32, 1-[2-Amino-4-(isoindoline-2-carbonyl)quinazolin-6-yl]-N-propylcyclobutanecarboxamide]",10 to 1000
2,"NC(=O)CNC(=O)C1(c2ccc3nc(N)nc(C(=O)N4Cc5ccccc5C4)c3c2)CCC1 [Compound A33, 1-[2-Amino-4-(isoindoline-2-carbonyl)quinazolin-6-yl]-N-(2-amino-2-oxoethyl)cyclobutanecarboxamide]",10 to 1000
3,"CC(C)CNC(=O)C1(c2ccc3nc(N)nc(C(=O)N4Cc5ccccc5C4)c3c2)CCC1 [Compound A34, 1-[2-Amino-4-(isoindoline-2-carbonyl)quinazolin-6-yl]-N-isobutylcyclobutanecarboxamide]",10 to 1000
4,"CC(C)(C)NC(=O)C(C)(C)c1ccc2nc(N)nc(C(=O)N3Cc4ccccc4C3)c2c1 [Compound A35, 2-[2-Amino-4-(isoindoline-2-carbonyl)quinazolin-6-yl]-N-tert-butyl-2-methylpropanamide]",10 to 1000
5,"CCNC(=O)C(C)(C)c1ccc2nc(N)nc(C(=O)N3Cc4ccccc4C3)c2c1 [Compound A36, 2-[2-Amino-4-(isoindoline-2-carbonyl)quinazolin-6-yl]-N-ethyl-2-methylpropanamide]",10 to 1000
6,"CC(C)CNC(=O)C(C)(C)c1ccc2nc(N)nc(C(=O)N3Cc4ccccc4C3)c2c1 [Compound A37, 2-[2-Amino-4-(isoindoline-2-carbonyl)quinazolin-6-yl]-N-isobutyl-2-methylpropanamide]",10 to 1000
7,"CCCNC(=O)C(C)(C)c1ccc2nc(N)nc(C(=O)N3Cc4ccccc4C3)c2c1 [Compound A38, 2-[2-Amino-4-(isoindoline-2-carbonyl)quinazolin-6-yl]-N-propyl-2-methylpropanamide]",10 to 1000
8,"CC(C)(C(=O)NCC(N)=O)c1ccc2nc(N)nc(C(=O)N3Cc4ccccc4C3)c2c1 [Compound A39, 2-[2-Amino-4-(isoindoline-2-carbonyl)quinazolin-6-yl]-N-(2-amino-2-oxoethyl)-2-methylpropanamide]",10 to 1000
9,"CC(C)(C(=O)NCCC#N)c1ccc2nc(N)nc(C(=O)N3Cc4ccccc4C3)c2c1 [Compound A40, 2-[2-Amino-4-(isoindoline-2-carbonyl)quinazolin-6-yl]-N-(2-cyanoethyl)-2-methylpropanamide]",1000 to 10000
10,"CNC(=O)C(CCC(F)F)c1ccc2nc(N)nc(C(=O)N3Cc4ccccc4C3)c2c1 (stereo not shown) [Compound A41, 2-[2-Amino-4-(isoindoline-2-carbonyl)quinazolin-6-yl]-N-methyl-5,5-difluoropentanamide]",10 to 1000
11,"CCNC(=O)C(CCC(F)F)c1ccc2nc(N)nc(C(=O)N3Cc4ccccc4C3)c2c1 (stereo not shown) [Compound A42, 2-[2-Amino-4-(isoindoline-2-carbonyl)quinazolin-6-yl]-N-ethyl-5,5-difluoropentanamide]",1000 to 10000
12,"CCCC(C(=O)NCC)c1ccc2nc(N)nc(C(=O)N3Cc4ccccc4C3)c2c1 (stereo not shown) [Compound A43, 2-[2-Amino-4-(isoindoline-2-carbonyl)quinazolin-6-yl]-N-ethylpentanamide]",10 to 1000
13,"CCCCC(C(=O)NCC)c1ccc2nc(N)nc(C(=O)N3Cc4ccccc4C3)c2c1 (stereo not shown) [Compound A44, 2-[2-Amino-4-(isoindoline-2-carbonyl)quinazolin-6-yl]-N-ethylhexanamide]",10 to 1000
14,"CCNC(=O)C(CCC(C)C)c1ccc2nc(N)nc(C(=O)N3Cc4ccccc4C3)c2c1 (stereo not shown) [Compound A45, 2-[2-Amino-4-(isoindoline-2-carbonyl)quinazolin-6-yl]-N-ethyl-5-methyl-hexanamide]",10 to 1000
15,"CCNC(=O)C(CC(C)C)c1ccc2nc(N)nc(C(=O)N3Cc4ccccc4C3)c2c1 (stereo not shown) [Compound A46, 2-[2-Amino-4-(isoindoline-2-carbonyl)quinazolin-6-yl]-N-ethyl-4-methylpentanamide]",10 to 1000
16,"CCNC(=O)C(c1ccc2nc(N)nc(C(=O)N3Cc4ccccc4C3)c2c1)C(C)CC (stereo not shown) [Compound A47, 2-[2-Amino-4-(isoindoline-2-carbonyl)quinazolin-6-yl]-N-ethyl-3-methylpentanamide]",10 to 1000
17,"CCNC(=O)C(c1ccc2nc(N)nc(C(=O)N3Cc4ccccc4C3)c2c1)C(C)C (stereo not shown) [Compound A48, 2-[2-Amino-4-(isoindoline-2-carbonyl)quinazolin-6-yl]-N-ethyl-3-methyl-butanamide]",10 to 1000
18,"C=C(CC(C(=O)NCC)c1ccc2nc(N)nc(C(=O)N3Cc4ccccc4C3)c2c1)C(N)=O (stereo not shown) [Compound A50, 2-[2-Amino-4-(isoindoline-2-carbonyl)quinazolin-6-yl]-N′-ethyl-2-methylene-pentanediamide]",1000 to 10000
19,"CCNC(=O)C1(c2ccc3nc(N)nc(C(=O)N4Cc5ccccc5C4)c3c2)CCCC1 [Compound A53, 1-[2-Amino-4-(isoindoline-2-carbonyl)quinazolin-6-yl]-N-ethylcyclopentanecarboxamide]",10 to 1000
20,"CCNC(=O)C1(c2ccc3nc(N)nc(C(=O)N4Cc5ccccc5C4)c3c2)CCOCC1 [Compound A54, 1-[2-Amino-4-(isoindoline-2-carbonyl)quinazolin-6-yl]-N-ethyltetrahydropyran-4-carboxamide]",1000 to 10000
21,"CCCC(C)(C(=O)NCC)c1ccc2nc(N)nc(C(=O)N3Cc4ccccc4C3)c2c1 (stereo not shown) [Compound A55, 2-[2-Amino-4-(isoindoline-2-carbonyl)quinazolin-6-yl]-N-ethyl-2-methylpentanamide]",10 to 1000
22,"CCOC(=O)C1(c2ccc3nc(N)nc(C(=O)N4Cc5ccccc5C4)c3c2)CC1 [Compound A56, Ethyl 1-[2-amino-4-(isoindoline-2-carbonyl)quinazolin-6-yl]cyclopropanecarboxylate]",10 to 1000
23,"Nc1nc(C(=O)N2Cc3ccccc3C2)c2cc(C3(C(=O)O)CC3)ccc2n1 [Compound A57, 1-[2-Amino-4-(isoindoline-2-carbonyl)quinazolin-6-yl]cyclopropanecarboxylic acid]",10 to 1000
24,C=C(CC(C(=O)O)c1ccc2nc(N)nc(C(=O)N3Cc4ccccc4C3)c2c1)C(N)=O (stereo not shown) [Compound A74],1000 to 10000
25,"CN1CCN(Cc2ccc3nc(N)nc(C(=O)N4Cc5ccccc5C4)c3c2)CC1 [Compound A76, [2-amino-6-[(4-methylpiperazin-1-yl)methyl]quinazolin-4-yl]-isoindolin-2-ylmethanone]",1000 to 10000
